What all share (assay type): functional, cell-based
Assay [1] deals with T1, Peroxisome proliferator-activated receptor gamma (Homo sapiens, UniProt P37231).
T1 sequence (P37231 whole entry): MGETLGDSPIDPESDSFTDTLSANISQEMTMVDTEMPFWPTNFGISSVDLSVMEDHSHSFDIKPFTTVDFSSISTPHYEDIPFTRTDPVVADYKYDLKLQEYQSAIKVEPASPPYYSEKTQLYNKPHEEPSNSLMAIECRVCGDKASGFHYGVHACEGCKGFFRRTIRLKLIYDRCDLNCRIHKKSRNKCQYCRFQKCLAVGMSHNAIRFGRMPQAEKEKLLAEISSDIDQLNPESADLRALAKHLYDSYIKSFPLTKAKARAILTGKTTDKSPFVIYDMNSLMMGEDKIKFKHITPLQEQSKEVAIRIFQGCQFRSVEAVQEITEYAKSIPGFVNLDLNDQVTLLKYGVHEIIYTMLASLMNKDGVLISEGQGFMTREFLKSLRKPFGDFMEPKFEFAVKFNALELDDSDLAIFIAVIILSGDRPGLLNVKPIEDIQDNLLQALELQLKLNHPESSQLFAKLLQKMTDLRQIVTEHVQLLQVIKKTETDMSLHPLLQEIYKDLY
Briefly: Partial agonist activity at human PPARgamma expressed in MG-63 cells by reporter gene-based transactivation assay.

Assay [2] deals with T2, Peroxisome proliferator-activated receptor gamma (Homo sapiens) (UniProt P37231).
T2 sequence (whole entry): T1 sequence (P37231 whole entry)
Briefly: Partial agonist activity at human PPARgamma expressed in MG-63 cells at 2 times EC50 concentration by reporter gene-based transactivation assay relative to PPARgamma full agonist. For orientation: A reporter such as luciferase makes a cellular process visible.

Assay [3] concerns the target T1, Peroxisome proliferator-activated receptor gamma. Kind of assay: Agonist activity at human PPARgamma expressed in MG-63 cells by reporter gene-based transactivation assay.
Assay [4] has as its target T2, Peroxisome proliferator-activated receptor gamma (Homo sapiens). Briefly: Agonist activity at human PPARgamma expressed in MG-63 cells at 2 times EC50 concentration by reporter gene-based transactivation assay relative to PPARgamma full agonist.

EC50 and Emax data for twelve molecules are collected here from ChEMBL document CHEMBL1944592 (Bioorg Med Chem Lett, 2012).

A word on the EC50: it is the midpoint of the concentration-response curve. A low value points to an effect from little substance. In turn, `COC(=O)CCc1cc(CNC(=O)c2c(OC)cc(O)c3c2OC2=CC(O)=C(C(C)=O)C(=O)[C@]23C)c2ccccc2c1` displayed an EC50 in assay [1] of 130 nM. Moreover, the Emax in assay [2] came out at 79%.

On to `COC(=O)CCCc1cc(CNC(=O)c2c(OC)cc(O)c3c2OC2=CC(O)=C(C(C)=O)C(=O)[C@]23C)c2ccccc2c1`, for which it took 42 nM to reach a half-maximal effect in assay [3] (EC50). The molecule also had an Emax in assay [4] of 99%.

As to `COc1cc(O)c2c(c1C(=O)NCc1cc(CCCC(=O)O)cc3ccccc13)OC1=CC(O)=C(C(C)=O)C(=O)[C@]12C`, the EC50 in assay [3] was 67 nM. The same molecule gave an Emax in assay [4] of 105%.

In turn, `COc1cc(CNC(=O)c2c(OC)cc(O)c3c2OC2=CC(O)=C(C(C)=O)C(=O)[C@]23C)c2ccccc2c1` showed an EC50 in assay [1] of 94 nM. For the same molecule, in assay [2], the Emax was 32%.

Take `COC(=O)c1cc(CNC(=O)c2c(OC)cc(O)c3c2OC2=CC(O)=C(C(C)=O)C(=O)[C@]23C)c2ccccc2c1`: a half-maximal effect in assay [1] (EC50) was put at 880 nM. The same molecule had an Emax in assay [2] of 55%.

In assay [1], `COc1cc(O)c2c(c1C(=O)NCc1cc(C)cc3ccccc13)OC1=CC(O)=C(C(C)=O)C(=O)[C@]12C` registered an EC50 of 210 nM. For the same molecule, the Emax in assay [2] came out at 51%.

`COc1cc(O)c2c(c1C(=O)NCc1cc(OC(C)=O)cc3ccccc13)OC1=CC(O)=C(C(C)=O)C(=O)[C@]12C` displayed an EC50 in assay [1] of 680 nM. In addition, the Emax in assay [2] was determined as 50%.

In assay [1], `COc1cc(O)c2c(c1C(=O)NCc1cc(O)cc3ccccc13)OC1=CC(O)=C(C(C)=O)C(=O)[C@]12C` yielded an EC50 of 130 nM. The Emax in assay [2] is 29%.

With `COc1cc(O)c2c(c1C(=O)NCc1cc(C(=O)O)cc3ccccc13)OC1=CC(O)=C(C(C)=O)C(=O)[C@]12C`, the EC50 in assay [1] was greater than 1000 nM.

Regarding `CCOc1cc(CNC(=O)c2c(OC)cc(O)c3c2OC2=CC(O)=C(C(C)=O)C(=O)[C@]23C)c2ccccc2c1`, the EC50 in assay [1] was 240 nM. The same molecule registered an Emax in assay [2] of 22%.

`COCc1cc(CNC(=O)c2c(OC)cc(O)c3c2OC2=CC(O)=C(C(C)=O)C(=O)[C@]23C)c2ccccc2c1` yielded a concentration giving a half-maximal response (EC50) in assay [1] of 200 nM. Moreover, in assay [2], the Emax was found to be 44%.

For `COc1cc(O)c2c(c1C(=O)NCc1cc(CCC(=O)O)cc3ccccc13)OC1=CC(O)=C(C(C)=O)C(=O)[C@]12C`, in assay [3], the EC50 is 320 nM. Further, in assay [4], the Emax was 109%.
